Test results from ChEMBL document CHEMBL2401685 (Bioorg Med Chem Lett, 2013).
Activity calls are given as the source filed them. No cut-off for these calls is given here.

Assays:
[1] = molecular target: T1, 11-beta-hydroxysteroid dehydrogenase 1 (Homo sapiens, UniProt P28845); assay: Competitive inhibition of 11beta-HSD1 in human liver microsomes at 1 to 10 uM by Lineweaver-burk plot analysis in presence of cortisone; conditions: Microsome
Target sequence in this assay (P28845 whole entry, looked up): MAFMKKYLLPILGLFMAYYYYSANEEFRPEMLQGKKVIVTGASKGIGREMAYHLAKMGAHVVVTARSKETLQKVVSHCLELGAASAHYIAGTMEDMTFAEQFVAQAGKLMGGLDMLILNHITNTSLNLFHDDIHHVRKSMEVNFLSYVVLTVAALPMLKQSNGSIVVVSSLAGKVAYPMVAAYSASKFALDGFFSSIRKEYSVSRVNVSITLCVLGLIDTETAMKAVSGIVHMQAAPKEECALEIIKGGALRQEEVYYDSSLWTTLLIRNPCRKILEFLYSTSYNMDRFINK

[2] = Cytotoxicity against CHOp cells; assay type: cell-based, Cricetulus griseus; conditions: chinese hamster
[3] = molecular target: T2, 11-beta-hydroxysteroid dehydrogenase 1 (Rattus norvegicus, UniProt P16232); assay: Inhibition of 11beta-HSD1 in rat testis microsomes using [3H]-11-DHC as substrate assessed as formation of CORT after 60 to 90 mins by radiometric analysis; parameters: species or system Microsome
T2 sequence (P16232 whole entry): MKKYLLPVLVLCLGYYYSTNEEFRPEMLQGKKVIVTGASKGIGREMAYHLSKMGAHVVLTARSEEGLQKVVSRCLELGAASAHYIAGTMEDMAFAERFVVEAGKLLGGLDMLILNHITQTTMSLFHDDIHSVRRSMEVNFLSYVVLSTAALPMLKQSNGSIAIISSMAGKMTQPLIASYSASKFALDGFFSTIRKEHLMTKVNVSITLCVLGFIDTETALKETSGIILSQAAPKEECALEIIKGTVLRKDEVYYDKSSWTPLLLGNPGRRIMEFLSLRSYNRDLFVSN

[4] = molecular target: T3, 11-beta-hydroxysteroid dehydrogenase type 2 (Rattus norvegicus) (UniProt P50233); assay: Inhibition of 11beta-HSD2 in rat kidney microsomes using [3H]-CORT as substrate assessed as formation of 11-DHC at 100 uM after 30 mins by radiometric analysis relative to control; conditions: Microsome
T3 sequence (whole entry): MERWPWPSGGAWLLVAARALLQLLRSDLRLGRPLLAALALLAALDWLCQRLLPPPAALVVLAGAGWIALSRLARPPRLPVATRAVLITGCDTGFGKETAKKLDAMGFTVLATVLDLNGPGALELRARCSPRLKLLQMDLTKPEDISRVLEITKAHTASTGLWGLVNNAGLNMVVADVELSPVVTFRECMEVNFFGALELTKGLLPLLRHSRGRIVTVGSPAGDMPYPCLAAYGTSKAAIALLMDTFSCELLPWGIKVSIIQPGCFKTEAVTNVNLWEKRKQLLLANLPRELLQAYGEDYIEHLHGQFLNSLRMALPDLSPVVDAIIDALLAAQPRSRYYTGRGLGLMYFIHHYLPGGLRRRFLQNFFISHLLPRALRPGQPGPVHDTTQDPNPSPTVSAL

[5] = (§1) Antiinflammatory activity in mouse J774A1 cells assessed as LPS-induced TNFalpha production at 10 uM incubated 2 hrs prior to LPS challenge measured after 24 hrs by ELISA relative to vehicle-treated control; assay type: functional; conditions: J774.A1
[6] = molecular target: T4, 11-beta-hydroxysteroid dehydrogenase type 2 (Homo sapiens) (UniProt P80365); assay: (§2) Inhibition of 11beta-HSD2 in human kidney microsomes using [3H]-cortisol as substrate assessed as formation of cortisone at 100 uM after 30 mins by radiometric analysis relative to control; conditions: Microsome
T4 sequence (whole entry): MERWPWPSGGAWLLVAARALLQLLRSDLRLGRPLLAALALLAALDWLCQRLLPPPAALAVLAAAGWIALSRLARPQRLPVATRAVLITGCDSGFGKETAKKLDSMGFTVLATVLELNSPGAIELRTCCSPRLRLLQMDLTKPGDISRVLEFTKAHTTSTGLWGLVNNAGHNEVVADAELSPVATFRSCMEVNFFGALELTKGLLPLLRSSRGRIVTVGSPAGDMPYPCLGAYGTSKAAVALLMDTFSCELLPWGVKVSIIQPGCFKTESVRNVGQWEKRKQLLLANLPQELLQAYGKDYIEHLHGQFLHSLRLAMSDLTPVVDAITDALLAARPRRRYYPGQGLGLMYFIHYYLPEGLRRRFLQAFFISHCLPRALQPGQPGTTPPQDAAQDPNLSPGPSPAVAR

[7] = molecular target: T1, 11-beta-hydroxysteroid dehydrogenase 1; assay: Ratio of curcumin IC50 to compound IC50 for human 11beta-HSD1 transfected in CHOP cells; assay type: cell-based
Target sequence in this assay (P28845 whole entry, looked up): as the sequence (P28845 whole entry, looked up) above

[8] = molecular target: T1, 11-beta-hydroxysteroid dehydrogenase 1; assay: Inhibition of 11beta-HSD1 in human liver microsomes using [3H]-cortisone as substrate assessed as formation of cortisol after 60 to 90 mins by radiometric analysis; parameters: species or system Microsome
Target sequence in this assay (P28845 whole entry): as the sequence (P28845 whole entry, looked up) above

[9] = Cytotoxicity against rat leydig cells; assay type: cell-based
[10] = molecular target: T2, 11-beta-hydroxysteroid dehydrogenase 1; assay: Inhibition of 11beta-HSD1 in Sprague-Dawley rat leydig cells […]
[11] = molecular target: T1, 11-beta-hydroxysteroid dehydrogenase 1; assay: Inhibition of human 11beta-HSD1 transfected in CHOP cells; assay type: cell-based
Target sequence in this assay (P28845 whole entry): as the sequence (P28845 whole entry, looked up) above

J774.A1 = assay: as §1; assay type: functional
[12] = molecular target: T5, 11-beta-hydroxysteroid dehydrogenase type 2 (Homo sapiens, UniProt P80365); assay: as §2; parameters: species or system Microsome
T5 sequence (P80365 whole entry): T4 sequence (whole entry)

[13] = molecular target: T1, 11-beta-hydroxysteroid dehydrogenase 1; assay: Inhibition of human 11beta-HSD1 transfected in CHOP cells at 100 uM relative to control; assay type: cell-based
Target sequence in this assay (P28845 whole entry, looked up): as above

[14] = molecular target: 11-beta-hydroxysteroid dehydrogenase 1 (Rattus norvegicus) (UniProt P16232); assay: Inhibition of 11beta-HSD1 in Sprague-Dawley rat leydig cells […] relative to control; conditions: 100 uM
11-beta-hydroxysteroid dehydrogenase 1 (Rattus norvegicus), sequence (P16232 whole entry, looked up): as the sequence (P16232 whole entry) above

[15] = molecular target: 11-beta-hydroxysteroid dehydrogenase 1 (Rattus norvegicus) (UniProt P16232); assay: Inhibition of 11beta-HSD1 in rat testis microsomes using [3H]-11-DHC as substrate assessed as formation of CORT at 100 uM after 60 to 90 mins by radiometric analysis relative to control; conditions: Microsome
[16] = molecular target: T1, 11-beta-hydroxysteroid dehydrogenase 1; assay: Inhibition of 11beta-HSD1 in human liver microsomes using [3H]-cortisone as substrate assessed as formation of cortisol at 100 uM after 60 to 90 mins by radiometric analysis relative to control; conditions: Microsome
Target sequence in this assay (P28845 whole entry, looked up): as the sequence (P28845 whole entry, looked up) above

inhibition [1] | IC50 [3] | inhibition [4] | inhibition [6] | Ratio IC50 [7] | IC50 [8] | IC50 [10] | IC50 [11] | IC50 [12] | inhibition [13] | inhibition [14] | inhibition [15] | inhibition [16] | SMILES | Activity [2] | inhibition at 10 µM [5] | Activity [9] | inhibition (J774.A1)
Active | 288 nM | 39% | 53% | 9 | 529 nM | 129 nM | 115 nM |  |  |  |  |  | O=C(/C=C/c1ccccc1Br)/C=C/c1ccccc1Br | Non-toxic | > 50% | Non-toxic | 
 | 13500 nM | 16% | 24% | 9 | 2970 nM | 1110 nM | 263 nM |  |  |  |  |  | O=C1/C(=C/c2ccc(F)cc2)CCC/C1=C\c1ccc(F)cc1 |  |  |  | inactive
 | 4120 nM |  |  |  | 16000 nM | 3920 nM | 4500 nM | 15700 nM |  |  |  |  | COc1cc(/C=C/C(=O)CC(=O)/C=C/c2ccc(O)c(OC)c2)ccc1O [CURCUMIN] |  |  |  | inactive
 |  | 10% | 6% |  |  |  |  |  | 14% | 27% | 0% | 14% | CCOc1ccc(/C=C2\CC/C(=C\c3ccc(OCC)cc3)C2=O)cc1 |  | < 50% |  | 
 | 22000 nM | 9% | 26% | 9 | 17400 nM | 3470 nM | 310 nM |  |  |  |  |  | O=C1/C(=C/c2ccc(F)cc2)CC/C1=C\c1ccc(F)cc1 |  |  |  | inactive
 | 218 nM | 39% | 33% | 9 | 1110 nM | 148 nM | 346 nM |  |  |  |  |  | O=C1/C(=C/c2ccccc2Br)CCC/C1=C\c1ccccc1Br | Non-toxic | > 50% | Non-toxic | 
